Drawing on PubChem BioAssay AID248 (DTP/NCI, 2004), this text covers T/C for 17 molecules.

Several values for one entry are separate records, joined by “and”; a condition that tells them apart may be missing. Equal entries are not always repeated. Toxic doses and inconclusive results are not listed.

For the assay, the system named is L1210 leukemia ip in BDF1 mice, survival T/C. The experiment in a line: NCI In Vivo Anticancer Drug Screen. Data for tumor model L1210 Leukemia (intraperitoneal) in B6D2F1 (BDF1) mice. As to conditions: endpoint: mean survival time, higher = longer survival. The method in brief: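 In this screen, tumor-bearing mice given compound are compared to those given vehicle, and their survival values are reported as a treated-to-control quotient.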

Setting [1] is: dose: 150.0 mg/kg/injection, schedule: Q01DX009 (ip), vehicle: saline.
Where [2] appears, read: dose: 100.0 mg/kg/injection, schedule: Q01DX001 (ip), vehicle: carboxymethylcellulose (CMC).
Where [3] appears, read: dose: 200.0 mg/kg/injection, schedule: Q01DX001 (ip), vehicle: carboxymethylcellulose (CMC).
[4] abbreviates: dose: 400.0 mg/kg/injection, schedule: Q01DX001 (ip), vehicle: carboxymethylcellulose (CMC).
[5] abbreviates: dose: 100.0 mg/kg/injection, schedule: Q01DX001 (ip), vehicle: saline.
Setting [6] is: dose: 200.0 mg/kg/injection, schedule: Q01DX001 (ip), vehicle: saline.
Setting [7] is: dose: 400.0 mg/kg/injection, schedule: Q01DX001 (ip), vehicle: saline.
Where [8] appears, read: dose: 100.0 mg/kg/injection, schedule: Q01DX009 (ip), vehicle: Klucel (hydroxypropylcellulose) (HPC).
The mark [9] stands for this setting: dose: 100.0 mg/kg/injection, schedule: Q04DX003 (ip), vehicle: Klucel (hydroxypropylcellulose) (HPC).
The mark [10] stands for this setting: dose: 200.0 mg/kg/injection, schedule: Q01DX009 (ip), vehicle: Klucel (hydroxypropylcellulose) (HPC).
The mark [11] stands for this setting: dose: 200.0 mg/kg/injection, schedule: Q04DX003 (ip), vehicle: Klucel (hydroxypropylcellulose) (HPC).
[12] abbreviates: dose: 400.0 mg/kg/injection, schedule: Q01DX009 (ip), vehicle: Klucel (hydroxypropylcellulose) (HPC).
The mark [13] stands for this setting: dose: 400.0 mg/kg/injection, schedule: Q04DX003 (ip), vehicle: Klucel (hydroxypropylcellulose) (HPC).
[14] abbreviates: dose: 50.0 mg/kg/injection, schedule: Q01DX009 (ip), vehicle: Klucel (hydroxypropylcellulose) (HPC).

As to `Cc1csc2nc(-c3ccccc3)nc(Cl)c12`, the T/C is 97 % of control (dose: 100.0 mg/kg/injection, schedule: Q04DX003 (ip), vehicle: saline sonified); 93 % of control (dose: 200.0 mg/kg/injection, schedule: Q04DX003 (ip), vehicle: saline sonified); 95 % of control (dose: 400.0 mg/kg/injection, schedule: Q04DX003 (ip), vehicle: saline sonified).
Consider `CCCCCCCCCCCCOC(=O)C(Cl)(Cl)Cl`, for which the T/C reads like this: (dose: 100.0 mg/kg/injection, schedule: Q01DX001 (ip), vehicle: other) 93 % of control; (dose: 100.0 mg/kg/injection, schedule: Q04DX003 (ip), vehicle: other) 102 % of control; (dose: 200.0 mg/kg/injection, schedule: Q01DX001 (ip), vehicle: other) 96 % of control; (dose: 200.0 mg/kg/injection, schedule: Q04DX003 (ip), vehicle: other) 96 % of control; (dose: 400.0 mg/kg/injection, schedule: Q01DX001 (ip), vehicle: other) 93 % of control; (dose: 400.0 mg/kg/injection, schedule: Q04DX003 (ip), vehicle: other) 97 % of control.
On to `C#CC(C)OCC(C)OC(C)=O` (stereo not drawn), for which the T/C runs as follows: (dose: 25.0 mg/kg/injection, schedule: Q01DX009 (ip), vehicle: acetone) 95 % of control; (dose: 50.0 mg/kg/injection, schedule: Q01DX009 (ip), vehicle: acetone) 94 % of control; (dose: 100.0 mg/kg/injection, schedule: Q01DX009 (ip), vehicle: acetone) 99 % of control; (dose: 100.0 mg/kg/injection, schedule: Q04DX003 (ip), vehicle: acetone) 100 % of control; under setting [1], 115 % of control; (dose: 225.0 mg/kg/injection, schedule: Q01DX009 (ip), vehicle: saline) 95 % of control. The T/C (dose: 335.0 mg/kg/injection, schedule: Q01DX009 (ip), vehicle: saline) is 93 % of control.
Regarding `NC(=S)S.[Zn+2]`, the T/C (dose: 13.3 mg/kg/injection, schedule: Q01DX Z (ip), vehicle: methylcellulose (MC)) is 96 % of control; the T/C (dose: 20.0 mg/kg/injection, schedule: Q01DX Z (ip), vehicle: methylcellulose (MC)) was 90 % of control; the T/C (dose: 30.0 mg/kg/injection, schedule: Q01DX Z (ip), vehicle: methylcellulose (MC)) was 90 % of control.
For the molecule `CC(=O)Nc1ccc(Cc2ccccc2)cc1[N+](=O)[O-]`, the T/C by setting is: under setting [2], 106 % of control; under setting [3], 98 % of control; under setting [4], 97 % of control.
`O=CO.[Cr]`: the T/C is 102 % of control under setting [5], 98 % of control under setting [6] and 98 % of control under setting [7].
As for `CCOC(=O)CSC(=S)N(C)C`, the T/C runs as follows: (dose: 100.0 mg/kg/injection, schedule: Q01DX001 (ip), vehicle: Klucel (hydroxypropylcellulose) (HPC)) 102 % of control; under setting [8], 95 % of control and 96 % of control and 111 % of control; (dose: 100.0 mg/kg/injection, schedule: Q04DX002 (ip), vehicle: Klucel (hydroxypropylcellulose) (HPC)) 102 % of control and 106 % of control; under setting [9], 101 % of control; (dose: 200.0 mg/kg/injection, schedule: Q01DX001 (ip), vehicle: Klucel (hydroxypropylcellulose) (HPC)) 102 % of control; under setting [10], 97 % of control and 104 % of control and 89 % of control. In addition, the T/C by setting is: (dose: 200.0 mg/kg/injection, schedule: Q04DX002 (ip), vehicle: Klucel (hydroxypropylcellulose) (HPC)) 102 % of control and 103 % of control; under setting [11], 93 % of control; (dose: 400.0 mg/kg/injection, schedule: Q01DX001 (ip), vehicle: Klucel (hydroxypropylcellulose) (HPC)) 96 % of control; under setting [12], 89 % of control; (dose: 400.0 mg/kg/injection, schedule: Q04DX002 (ip), vehicle: Klucel (hydroxypropylcellulose) (HPC)) 103 % of control and 104 % of control; under setting [13], 93 % of control.
For `O=C(N/N=C\c1cccc2ccccc12)C(=O)N/N=C/c1cccc2ccccc12`, the T/C (dose: 100.0 mg/kg/injection, schedule: Q04DX003 (ip), vehicle: saline with Tween-80) is 88 % of control; the T/C (dose: 200.0 mg/kg/injection, schedule: Q04DX003 (ip), vehicle: saline with Tween-80) is 88 % of control; the T/C (dose: 400.0 mg/kg/injection, schedule: Q04DX003 (ip), vehicle: saline with Tween-80) is 91 % of control.
With `COC(=O)CCC(C)C1CCC2C3CCC4CC(OC(=O)c5ccccc5)CCC4(C)C3CC(=O)C12C` (stereo not drawn), the T/C is, setting by setting: (dose: 100.0 mg/kg/injection, schedule: Q01DX001 (sc), vehicle: steriod suspending solution) 102 % of control; (dose: 100.0 mg/kg/injection, schedule: Q01DX009 (sc), vehicle: steriod suspending solution) 93 % of control; (dose: 200.0 mg/kg/injection, schedule: Q01DX001 (sc), vehicle: steriod suspending solution) 106 % of control; (dose: 200.0 mg/kg/injection, schedule: Q01DX009 (sc), vehicle: steriod suspending solution) 98 % of control; (dose: 400.0 mg/kg/injection, schedule: Q01DX001 (sc), vehicle: steriod suspending solution) 104 % of control; (dose: 400.0 mg/kg/injection, schedule: Q01DX009 (sc), vehicle: steriod suspending solution) 99 % of control.
On to `CC1(C)C2CCC1(C)C(O)C2=O` (stereo not drawn), for which the T/C (dose: 75.0 mg/kg/injection, schedule: Q01DX009 (ip), vehicle: saline) is 95 % of control; the T/C under setting [1] was 92 % of control; the T/C (dose: 300.0 mg/kg/injection, schedule: Q01DX009 (ip), vehicle: saline) was 95 % of control.
Turning to `NC(c1ccccc1)C(C(=O)O)C(=O)O` (stereo not drawn), the T/C runs as follows: (dose: 75.0 mg/kg/injection, schedule: Q04DX003 (ip), vehicle: saline) 95 % of control; (dose: 150.0 mg/kg/injection, schedule: Q04DX003 (ip), vehicle: saline) 94 % of control; (dose: 300.0 mg/kg/injection, schedule: Q04DX003 (ip), vehicle: saline) 95 % of control.
As to `CCOP(=O)(NC(C)(C)C)OCC`, the T/C is, setting by setting: (dose: 50.0 mg/kg/injection, schedule: Q01DX001 (ip), vehicle: carboxymethylcellulose (CMC)) 107 % of control; under setting [2], 107 % of control; under setting [3], 105 % of control; under setting [4], 100 % of control.
With `C=CC(=O)NCNC(C)C` (tested in a mixture with another compound), the T/C runs as follows: (dose: 12.5 mg/kg/injection, schedule: Q01DX009 (ip), vehicle: Klucel (hydroxypropylcellulose) (HPC)) 97 % of control; (dose: 12.5 mg/kg/injection, schedule: Q01DX009 (ip), vehicle: saline) 100 % of control and 93 % of control; (dose: 25.0 mg/kg/injection, schedule: Q01DX009 (ip), vehicle: Klucel (hydroxypropylcellulose) (HPC)) 97 % of control; (dose: 25.0 mg/kg/injection, schedule: Q01DX009 (ip), vehicle: saline) 95 % of control; under setting [14], 90 % of control; (dose: 50.0 mg/kg/injection, schedule: Q01DX009 (ip), vehicle: saline) 100 % of control.
For `O=c1[nH]nnc2c1cnn2C1OC(CO)C(O)C1O` (stereo not drawn), the T/C under setting [5] is 100 % of control, the T/C under setting [6] is 106 % of control and the T/C under setting [7] was 97 % of control.
Turning to `O=C1C(C2(O)C(=O)Nc3ccccc32)CCCC1C1(O)C(=O)Nc2ccccc21` (stereo not drawn), the T/C under setting [14] was 97 % of control, the T/C under setting [8] is 104 % of control and the T/C under setting [10] was 101 % of control.
Regarding `C#CCN(C)/N=N/c1nc[nH]c1C(N)=O`, the T/C by setting is: (dose: 50.0 mg/kg/injection, schedule: Q04DX003 (ip), vehicle: Klucel (hydroxypropylcellulose) (HPC)) 104 % of control; under setting [8], 157 % of control; under setting [9], 109 % of control and 116 % of control; under setting [10], 118 % of control; under setting [11], 108 % of control; under setting [12], 88 % of control. Moreover, the T/C under setting [13] is 117 % of control.
`CO[CH2][Pb]([c]1ccccc1)([c]1ccccc1)[c]1ccccc1`: the T/C is 98 % of control (dose: 100.0 mg/kg/injection, schedule: Q04DX002 (ip), vehicle: saline with Tween-80); 94 % of control (dose: 200.0 mg/kg/injection, schedule: Q04DX002 (ip), vehicle: saline with Tween-80); 94 % of control (dose: 400.0 mg/kg/injection, schedule: Q04DX002 (ip), vehicle: saline with Tween-80).
